Data on 86 compounds can be found in ChEMBL document CHEMBL3988442, “University of Dundee, Small-Polar-MMV Screening Library” (2021).

A short description of test [1]: microbe, parasite or virus in culture. To be noted: Mycobacterium tuberculosis, 72 h, read-out: pIC50 (converted).
Test [2] in a line: microbe, parasite or virus in culture. The following applies: Mycobacterium tuberculosis, 96 h, read-out: pIC50 (converted).

For the compound `O=C(NCCN1CCCC1)c1ccc2ccccc2n1`, the IC50 was 146 µM in test [1] and 249 µM in test [2].
The matching figures for `c1cn(C2CCNCC2)nn1`: 354 µM and 409 µM.
The matching figures for `COc1ccc(C(=O)NC2=NCCS2)c(O)c1`: 456 µM and 185 µM.
On to `NCCS(=O)(=O)N1CCc2ccccc21`, for which the IC50 in test [1] was 149 µM; in test [2], 240 µM.
The matching figures for `CC(C)COCC(O)CNc1nnc(C(C)C)s1` (configuration not stated): 111 µM and 86.9 µM.
Take `COc1ccc(NC(C(N)=O)c2ccc(Br)cc2)cn1` (configuration not stated): the values for the IC50 in test [1] and in test [2] were 148 µM and 198 µM, respectively.
The matching figures for `CC(C)c1ccc(S(=O)(=O)C(C)C(N)=O)cc1` (configuration not stated): 284 µM and 190 µM.
Take `CCNc1nnc(SC(C)C)s1`: the results for the IC50 in test [1] and in test [2] were 120 µM and 54.2 µM, respectively.
For `COc1cc(OC)cc(C2(F)CCNCC2)c1`, in that order: 226 µM and 287 µM.
The matching figures for `Cc1ccc(S(=O)(=O)N2CCC[C@@H](N)C2)c(C)c1`: 219 µM and 276 µM.
The matching figures for `CC1COC2(CCN(C(=O)c3ccc(Cl)s3)CC2)O1` (configuration not stated): 25.7 µM and 45.1 µM.
For `CCOC(=O)CCC(=O)c1ccc2c(c1)OCCO2`, the IC50 in test [1] was 209 µM; in test [2] it was 199 µM.
The matching figures for `CC(C)N(Cc1ccccn1)C(=O)c1cc(Cl)c[nH]1`: > 501 µM and > 501 µM.
The matching figures for `CCNC(=O)CNc1ccc(Br)cc1`: 162 µM and 210 µM.
The matching figures for `CC(C)N(C)S(=O)(=O)N(C)Cc1ccc(Br)o1`: 204 µM and 394 µM.
Regarding `NS(=O)(=O)C1CCN(Cc2ccc(Br)c(F)c2)C1` (configuration not stated), the figures for the IC50 in test [1] and in test [2] were 171 µM and > 501 µM, respectively.
For `CC(C)COc1cncc(NC(C)CO)n1` (configuration not stated), in that order: > 501 µM and > 501 µM.
Consider `CCC(C(=O)Nc1cc2c(cc1C)OCO2)N(C)C` (configuration not stated), for which the IC50 in test [1] and in test [2] was > 501 µM throughout.
On to `O[C@@H]1CNC[C@H]1n1ccnn1`, for which the IC50 is 286 µM in test [1] and 289 µM in test [2].
For `Cc1cc(OC(F)F)c(C2NC(=O)CN2C)cc1C` (configuration not stated), in that order: > 501 µM and > 501 µM.
For `O=C1NCC(C(=O)NCCCc2ccc(Cl)cc2)N1` (configuration not stated), in that order: > 501 µM and > 501 µM.
The matching figures for `Cc1cccc(NCCC(=O)NC2CCCC2)n1`: 122 µM and > 501 µM.
For the compound `NCCc1nc(-c2ccccn2)cs1`, the IC50 in test [1] was 2.67 µM; in test [2] it was 1.16 µM.
The matching figures for `CC(C)CCNC(=O)CCn1cc(Br)ccc1=O`: 142 µM and 105 µM.
Consider `O=C(NCc1[nH]ncc1Br)Nc1nc2c(s1)COCC2`, for which the IC50 is 328 µM in test [1] and > 501 µM in test [2].
As for `COc1ccc(CCN)c(Cl)c1OC`, the values for the IC50 in test [1] and in test [2] were 265 µM and > 501 µM, respectively.
The matching figures for `c1cncc(-c2nc(SCC3CCCCO3)n[nH]2)c1` (configuration not stated): 229 µM and > 501 µM.
For `O=C(CCn1cccn1)N1CCc2sccc2C1`, in that order: 117 µM and > 501 µM.
The matching figures for `OC(CN1CCCSCC1)c1ccc(F)cc1` (configuration not stated): > 501 µM and > 501 µM.
For the compound `CN1CCC(NC(=O)c2coc(Br)c2)CC1=O` (configuration not stated), the IC50 in test [1] and in test [2] was > 501 µM throughout.
Regarding `COCCOCc1cccc(NC(=O)NC(C)C)c1`, the IC50 in test [1] and in test [2] was > 501 µM throughout.
For `O=C(Cc1cccnc1)NCCNc1cccc(Br)c1`, the IC50 in test [1] was 143 µM; in test [2], > 501 µM.
With `CC(C)NC(=O)Nc1cc(C(F)(F)F)c[nH]c1=O`, the IC50 in test [1] is 92.8 µM; in test [2], 109 µM.
For the compound `CC(=O)Nc1nc(C(=O)NCc2ccc(C)s2)cs1`, the IC50 was 224 µM in test [1] and 268 µM in test [2].
For `CC(C)Nc1ncccc1C(=O)Nc1nncs1`, the IC50 in test [1] and in test [2] was > 501 µM each time.
As to `COc1cccc(S(=O)(=O)CCN2CCN(C)CC2)c1`, the IC50 in test [1] and in test [2] was > 501 µM throughout.
On to `c1snnc1CNCC1COC2(CCCCC2)O1` (configuration not stated), for which the IC50 in test [1] is > 501 µM; in test [2] it was 268 µM.
The matching figures for `CC(C)c1cccc(NC(=O)CN2CCC(O)CC2)c1`: 116 µM and 359 µM.
With `CNc1cccnc1N1CCCC1`, the IC50 in test [1] was 22 µM; in test [2] it was 41.3 µM.
For `O=C(Cn1cnnn1)NCC1(c2ccccc2)CCC1`, in that order: 304 µM and > 501 µM.
For `COC(=O)CCCC(=O)N1CCCc2ccc(F)cc21`, in that order: 213 µM and 277 µM.
For `O=C(Nc1nncs1)c1ccccn1`, in that order: 36.5 µM and 139 µM.
With `OCC1CCN(CCc2ccccc2)C1` (configuration not stated), the results for the IC50 in test [1] and in test [2] were 393 µM and 243 µM, respectively.
For `OC(CN1CCn2ccnc2C1)c1cccc(F)c1` (configuration not stated), in that order: > 501 µM and > 501 µM.
For the compound `COc1cc(CCN)ccc1C`, the IC50 was 303 µM in test [1] and 277 µM in test [2].
For `Cc1nnc(SCc2ccc(Cl)s2)n1CC(N)=O`, in that order: > 501 µM and > 501 µM.
Regarding `CCc1cc(C)c(C(=O)Nc2ccc(C(N)=O)nc2)o1`, the IC50 is 56.5 µM in test [1] and 69.6 µM in test [2].
The matching figures for `CN(CCn1cnnc1)c1ccc2ccc(F)cc2n1`: 212 µM and 259 µM.
On to `CC[C@H](N)C(=O)N(C)CCOc1cccc(Cl)c1`, for which the IC50 was 377 µM in test [1] and 263 µM in test [2].
The matching figures for `O=C(NC1CC1)c1cccc(CNc2ccccn2)c1`: 220 µM and > 501 µM.
For `N#Cc1nc(NCCSCCCO)ccc1Cl`, in that order: 221 µM and 418 µM.
The matching figures for `CNC(=O)[C@@H](C)Nc1ccc(C(F)(F)F)cn1`: > 501 µM and > 501 µM.
In the case of `OCCCN1CCCN(Cc2ccc(F)cc2)CC1`, the IC50 is 186 µM in test [1] and > 501 µM in test [2].
For `CCOCC(C)Nc1ccc(C)c(S(C)(=O)=O)c1` (configuration not stated), in that order: 188 µM and 221 µM.
The matching figures for `COc1ccc(NS(=O)(=O)N(C)C)c(Br)c1`: > 501 µM and > 501 µM.
As to `O=C(c1cnsn1)N1CCCSc2ccc(F)cc21`, the IC50 was 200 µM in test [1] and 164 µM in test [2].
For `Cc1cc(OCC(=O)NCc2ccccc2F)no1`, in that order: 73.3 µM and 118 µM.
Take `COc1cccc(CNCCNc2cccc(C)n2)c1`: the IC50 in test [1] is 248 µM; in test [2], > 501 µM.
Regarding `Cc1cccc(OCC(O)CN)c1` (configuration not stated), the IC50 in test [1] is 179 µM; in test [2], 345 µM.
`CCCS(=O)(=O)N(C)Cc1ccc(OCC)cn1`: the IC50 in test [1] was 148 µM; in test [2], 280 µM.
The matching figures for `COc1cccc(CNc2nc(C(C)C)nn2C)n1`: 315 µM and > 501 µM.
The matching figures for `CCOc1ccc(Cl)cc1CCNS(=O)(=O)N(C)C`: 245 µM and 282 µM.
The matching figures for `COc1ccc(N2CCCNCC2)cc1`: 308 µM and 276 µM.
In the case of `O=C(CCn1cccn1)N1CCCCCC1`, the IC50 in test [1] is 110 µM; in test [2], > 501 µM.
The matching figures for `NCCc1cccc2cc[nH]c12`: 177 µM and 211 µM.
The matching figures for `CNC(=O)CN1CCC(OCCCc2ccccc2)C1` (configuration not stated): 161 µM and > 501 µM.
Consider `COCCC(C)NC(=O)Nc1ccc(C#N)cc1` (configuration not stated), for which the values for the IC50 in test [1] and in test [2] were 232 µM and 159 µM, respectively.
For `Cc1cccc(NCCCNC(=O)c2cccs2)n1`, in that order: > 501 µM and > 501 µM.
On to `O=C1CCN(CCOc2cc(F)cc(Br)c2)CCN1`, for which the IC50 is 198 µM in test [1] and 279 µM in test [2].
The matching figures for `CC(=O)c1sc(NCCc2ccccn2)nc1C`: > 501 µM and > 501 µM.
For `CCc1ccc(NC(=O)CN2CC[C@@H](N)C2)cc1`, in that order: 199 µM and > 501 µM.
`O=C(CNc1ccc(Br)cc1)NCc1ncc[nH]1`: the IC50 in test [1] was 228 µM; in test [2] it was > 501 µM.
As for `O=C(c1cc(Br)c[nH]1)N1CCN2CCCCC2C1` (configuration not stated), the IC50 in test [1] was 232 µM; in test [2] it was > 501 µM.
For `CC1Cc2ccccc2N1C(=O)c1ccccn1` (configuration not stated), in that order: > 501 µM and > 501 µM.
Regarding `O=C(NCC(=O)N1CCCC1)c1csc2ccccc12`, the IC50 in test [1] is 43.9 µM; in test [2], 71.2 µM.
For `CNCC(=O)NC(C)c1nc(-c2ccc(Br)cc2)no1` (configuration not stated), in that order: 197 µM and 261 µM.
The matching figures for `COc1cc(N2CCNCC2)ccc1F`: 281 µM and > 501 µM.
The matching figures for `NCCc1nc(-c2cccc(Cl)c2)no1`: 122 µM and 190 µM.
Turning to `COC(=O)CCCC(=O)N1CCC2(CCCC2)C1`, the values for the IC50 in test [1] and in test [2] were 180 µM and 110 µM, respectively.
As to `OC[C@@H]1CCCN1Cc1cccc(F)c1F`, the IC50 in test [1] and in test [2] was > 501 µM in each case.
As for `Cc1ccc(C(N)c2ccccn2)cc1` (configuration not stated), the results for the IC50 in test [1] and in test [2] were 90.7 µM and 191 µM, respectively.
Regarding `Brc1cccc2c1CNCCO2`, the IC50 was 213 µM in test [1] and > 501 µM in test [2].
The matching figures for `O=S(=O)(CCNc1ccccn1)NCC1CCC1`: 307 µM and 213 µM.
The matching figures for `OCCC1COc2ccc(F)cc2N1` (configuration not stated): > 501 µM and > 501 µM.
For `NC(=O)C(NC(=O)c1sccc1Br)c1ccccc1` (configuration not stated), in that order: > 501 µM and > 501 µM.
As to `Cn1ccsc1=NC(=O)c1ccc(OCC(N)=O)cc1`, the IC50 in test [1] and in test [2] was > 501 µM in each case.
